# Experimental data from patent publication US12202818B2, “Compounds and methods for CD73 modulation and indications therefor” (Opna Bio SA, priority 2020, dated 2025).
# What was measured:
# [1] = target: T1, Human CD73 (amino acid residues 27-549) (Homo sapiens, UniProt P21589); assay: CD73 enzymatic assay (luciferase-based indirect assay, CellTiter-Glo); format: biochemical; conditions: 0.4 nM CD73, 150 μM AMP, 1 hour at room temperature
# T1 construct: Human CD73 (amino acid residues 27-549); His tag (N); made in house; host or cells: E. coli
# T1 sequence (P21589 27-549): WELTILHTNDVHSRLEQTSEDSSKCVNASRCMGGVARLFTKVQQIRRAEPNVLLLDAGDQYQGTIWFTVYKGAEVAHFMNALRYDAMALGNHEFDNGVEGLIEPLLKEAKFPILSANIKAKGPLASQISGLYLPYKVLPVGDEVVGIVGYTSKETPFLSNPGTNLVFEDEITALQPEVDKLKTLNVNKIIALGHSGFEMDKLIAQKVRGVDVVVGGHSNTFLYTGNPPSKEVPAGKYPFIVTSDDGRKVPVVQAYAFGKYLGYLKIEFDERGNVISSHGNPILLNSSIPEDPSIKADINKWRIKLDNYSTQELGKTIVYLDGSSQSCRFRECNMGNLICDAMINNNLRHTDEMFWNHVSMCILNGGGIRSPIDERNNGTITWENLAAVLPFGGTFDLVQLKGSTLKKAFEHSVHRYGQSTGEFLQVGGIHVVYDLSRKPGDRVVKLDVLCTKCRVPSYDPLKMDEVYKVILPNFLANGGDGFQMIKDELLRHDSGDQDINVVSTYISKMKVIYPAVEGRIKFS
# How it was run: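 N-His human CD73 (27-549) expressed in E. coli, 0.4 nM, incubated with 150 μM AMP and compound in 50 mM HEPES pH 7.4, 0.01% Tween-20, 1 h at RT. Remaining AMP read via CellTiter-Glo luminescence with 1 μM ATP after 30 min; IC50 from nonlinear regression of % inhibition.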
# [2] = target: T2, human CD73 (Homo sapiens, UniProt P21589); assay: Inhibitor activity against CD73 in cell based assay (CD73 expressing CHO-K1 cells); conditions: CHO-K1 cells expressing human CD73, 150 μM AMP, 4 hours of incubation; read-out: CHO-K1 CELL_VARIANT: CD73 IC50
# T2 construct: expressed in transfected cells
# T2 sequence (P21589 27-549): T1 sequence (P21589 27-549)
# How it was run: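 Stable human CD73 CHO-K1 cells, 1×10^4/well, exposed to an 8-point 1:3 compound series (top 10 μM, 0.2% DMSO) plus 150 μM AMP for 4 h. Remaining AMP in the supernatant was read by CellTiter-Glo 2.0 luminescence with 1 μM ATP after 30 min at room temperature. IC50 came from nonlinear regression of % inhibition against cell and media-only controls.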
Compound,IC50 [1] [µM],IC50 [2] [µM]
"Cc1nn(CC2CC2)c(C)c1-c1cc(F)nc(O[C@@H]2CCN(c3cn[nH]c(=O)c3Cl)C2)c1 [P-0152, (R)-4-chloro-5-(3-((4-(1-(cyclopropylmethyl)-3,5-dimethyl-1H-pyrazol-4-yl)-6-fluoropyridin-2-yl)oxy)pyrrolidin-1-yl)pyridazin-3(2H)-one]",0.001 to 10,0.001 to 10
"Cc1c(C)n(-c2cc(F)nc(O[C@@H]3CCN(c4cn[nH]c(=O)c4Cl)C3)c2)c2ccccc12 [P-0153, (R)-4-chloro-5-(3-((4-(2,3-dimethyl-1H-indol-1-yl)-6-fluoropyridin-2-yl)oxy)pyrrolidin-1-yl)pyridazin-3(2H)-one]",0.001 to 10,0.001 to 10
"Cc1nn(CC2(F)CNC2)c(C)c1-c1cc(F)nc(O[C@@H]2CCN(c3cn[nH]c(=O)c3Cl)C2)c1 [P-0154, (R)-4-chloro-5-(3-((6-fluoro-4-(1-((3-fluoroazetidin-3-yl)methyl)-3,5-dimethyl-1H-pyrazol-4-yl)pyridin-2-yl)oxy)pyrrolidin-1-yl)pyridazin-3(2H)-one]",0.001 to 10,0.001 to 10
"Cn1ncc(Cl)c1-c1ccnc(O[C@@H]2CCN(c3cn[nH]c(=O)c3Cl)C2)c1 [P-0155, (R)-4-chloro-5-(3-((4-(4-chloro-1-methyl-1H-pyrazol-5-yl)pyridin-2-yl)oxy)pyrrolidin-1-yl)pyridazin-3(2H)-one]",0.001 to 10,0.001 to 10
"Cc1nn(C)c(C)c1-c1cnnc(O[C@@H]2CCN(c3cn[nH]c(=O)c3Cl)C2)c1 [P-0156, (R)-4-chloro-5-(3-((5-(1,3,5-trimethyl-1H-pyrazol-4-yl)pyridazin-3-yl)oxy)pyrrolidin-1-yl)pyridazin-3(2H)-one]",0.001 to 10,0.001 to 10
"Cc1nn(C)c(C)c1-c1cc(O[C@@H]2CCN(c3cn[nH]c(=O)c3Cl)C2)cnn1 [P-0157, (R)-4-chloro-5-(3-((6-(1,3,5-trimethyl-1H-pyrazol-4-yl)pyridazin-4-yl)oxy)pyrrolidm-1-yl)pyridazin-3(2H)-one]",0.001 to 10,0.001 to 10
"Cc1noc(C)c1-c1cnnc(O[C@@H]2CCN(c3cn[nH]c(=O)c3Cl)C2)c1 [P-0158, (R)-4-chloro-5-(3-((5-(3,5-dimethylisoxazol-4-yl)pyridazin-3-yl)oxy)pyrrolidin-1-yl)pyridazin-3(2H)-one]",0.001 to 10,0.001 to 10
"Cc1nn(CCN2CCCC2)c(C)c1-c1cc(F)nc(O[C@@H]2CCN(c3cn[nH]c(=O)c3Cl)C2)c1 [P-0159, (R)-4-chloro-5-(3-((4-(3,5-dimethyl-1-(2-(pyrrolidin-1-yl)ethyl)-1H-pyrazol-4-yl)-6-fluoropyridin-2-yl)oxy)pyrrolidin-1-yl)pyridazin-3(2H)-one]",0.001 to 10,0.001 to 10
"Cc1nn(CCN2CCOCC2)c(C)c1-c1cc(F)nc(O[C@@H]2CCN(c3cn[nH]c(=O)c3Cl)C2)c1 [P-0160, (R)-4-chloro-5-(3-((4-(3,5-dimethyl-1-(2-morpholinoethyl)-1H-pyrazol-4-yl)-6-fluoropyridin-2-yl)oxy)pyrrolidin-1-yl)pyridazin-3(2H)-one]",0.001 to 10,0.001 to 10
"Cc1nn(CCN(C)C)c(C)c1-c1cc(F)nc(O[C@@H]2CCN(c3cn[nH]c(=O)c3Cl)C2)c1 [P-0161, (R)-4-chloro-5-(3-((4-(1-(2-(dimethylamino)ethyl)-3,5-dimethyl-1H-pyrazol-4-yl)-6-fluoropyridin-2-yl)oxy)pyrrolidin-1-yl)pyridazin-3(2H)-one]",0.001 to 10,0.001 to 10
"Cc1noc(C)c1-c1cncc(O[C@@H]2CCN(c3cn[nH]c(=O)c3Cl)C2)c1 [P-0162, (R)-4-chloro-5-(3-((5-(3,5-dimethylisoxazol-4-yl)pyridin-3-yl)oxy)pyrrolidin-1-yl)pyridazin-3(2H)-one]",0.001 to 10,0.001 to 10
"O=c1[nH]ncc(N2CC[C@@H](Oc3cncc(O[C@@H]4CCN(c5cn[nH]c(=O)c5Cl)C4)c3)C2)c1Cl [P-0163, 5,5′-((3R,3′R)-(pyridine-3,5-diylbis(oxy))bis(pyrrolidine-3,1-diyl))bis(4-chloropyridazin-3(2H)-one)]",0.001 to 10,0.001 to 10
"CCCn1nc(C)c(-c2cc(F)nc(O[C@@H]3CCN(c4cn[nH]c(=O)c4)C3)c2)c1C [P-0164, (R)-5-(3-((4-(3,5-dimethyl-1-propyl-1H-pyrazol-4-yl)-6-fluoropyridin-2-yl)oxy)pyrrolidin-1-yl)pyridazin-3(2H)-one]",0.001 to 10,0.001 to 10
"CCCn1nc(C)c(-c2cc(F)nc(O[C@@H]3CCN(c4cn[nH]c(=O)c4Cl)C3)c2)c1C [P-0165, (R)-4-chloro-5-(3-((4-(3,5-dimethyl-1-propyl-1H-pyrazol-4-yl)-6-fluoropyridin-2-yl)oxy)pyrrolidin-1-yl)pyridazin-3(2H)-one]",0.001 to 10,0.001 to 10

# Continued, values first:
IC50 [1] [µM],IC50 [2] [µM],Compound
0.001 to 10,0.001 to 10,"Cc1noc(C)c1-c1cc(O[C@@H]2CCN(c3cnn(CCN)c(=O)c3Cl)C2)ncn1 [P-0141, (R)-2-(2-aminoethyl)-4-chloro-5-(3-((6-(3,5-dimethylisoxazol-4-yl)pyrimidin-4-yl)oxy)pyrrolidin-1-yl)pyridazin-3(2H)-one]"
0.001 to 10,0.001 to 10,"Cc1nn(C)c(C)c1-c1ccnc(O[C@H]2CN(c3cnn(CCO)c(=O)c3Cl)C[C@@H]2F)c1 [P-0142, 4-chloro-5-((3S,4S)-3-fluoro-4-((4-(1,3,5-trimethyl-1H-pyrazol-4-yl)pyridin-2-yl)oxy)pyrrolidin-1-yl)-2-(2-hydroxyethyl)pyridazin-3(2H)-one]"
0.001 to 10,0.001 to 10,"Cc1nn(C)c(C)c1-c1ccnc(O[C@@H]2CCN(c3cnn(CCO)c(=O)c3Cl)C2)c1 [P-0143, (R)-4-chloro-2-(2-hydroxyethyl)-5-(3-((4-(1,3,5-trimethyl-1H-pyrazol-4-yl)pyridin-2-yl)oxy)pyrrolidin-1-yl)pyridazin-3(2H)-one]"
0.001 to 10,0.001 to 10,"Cc1nn(C)c(C)c1-c1cc(O[C@H]2CN(c3cnn(CCO)c(=O)c3Cl)C[C@@H]2F)ncn1 [P-0144, 4-chloro-5-((3S,4S)-3-fluoro-4-((6-(1,3,5-trimethyl-1H-pyrazol-4-yl)pyrimidin-4-yl)oxy)pyrrolidin-1-yl)-2-(2-hydroxyethyl)pyridazin-3(2H)-one]"
0.001 to 10,0.001 to 10,"Cc1noc(C)c1-c1cc(O[C@H]2CN(c3cnn(CCO)c(=O)c3Cl)C[C@@H]2F)ncn1 [P-0145, 4-chloro-5-((3S,4S)-3-((6-(3,5-dimethylisoxazol-4-yl)pyrimidin-4-yl)oxy)-4-fluoropyrrolidin-1-yl)-2-(2-hydroxyethyl)pyridazin-3(2H)-one]"
0.001 to 10,0.001 to 10,"Cc1noc(C)c1-c1cc(O[C@@H]2CCN(c3cnn(CCO)c(=O)c3Cl)C2)ncc1F [P-0146, (R)-4-chloro-5-(3-((4-(3,5-dimethylisoxazol-4-yl)-5-fluoropyridin-2-yl)oxy)pyrrolidin-1-yl)-2-(2-hydroxyethyl)pyridazin-3(2H)-one]"
0.001 to 10,0.001 to 10,"Cc1nn(C)c(C)c1-c1cc(O[C@H]2CN(c3cn[nH]c(=O)c3Cl)C[C@@H]2F)ncn1 [P-0147, 4-chloro-5-((3S,4S)-3-fluoro-4-((6-(1,3,5-trimethyl-1H-pyrazol-4-yl)pyrimidin-4-yl)oxy)pyrrolidin-1-yl)pyridazin-3(2H)-one]"
0.001 to 10,0.001 to 10,"Cc1noc(C)c1-c1cc(O[C@H]2CN(c3cn[nH]c(=O)c3Cl)C[C@@H]2F)ncn1 [P-0148, 4-chloro-5-((3S,4S)-3-((6-(3,5-dimethylisoxazol-4-yl)pyrimidin-4-yl)oxy)-4-fluoropyrrolidin-1-yl)pyridazin-3(2H)-one]"
0.001 to 10,0.001 to 10,"Cc1noc(C)c1-c1cc(O[C@@H]2CCN(c3cn[nH]c(=O)c3Cl)C2)ncc1F [P-0149, (R)-4-chloro-5-(3-((4-(3,5-dimethylisoxazol-4-yl)-5-fluoropyridin-2-yl)oxy)pyrrolidin-1-yl)pyridazin-3(2H)-one]"
0.001 to 10,0.001 to 10,"COCc1noc(C)c1-c1ccnc(O[C@@H]2CCN(c3cn[nH]c(=O)c3Cl)C2)c1 [P-0150, (R)-4-chloro-5-(3-((4-(3-(methoxymethyl)-5-methylisoxazol-4-yl)pyridin-2-yl)oxy)pyrrolidin-1-yl)pyridazin-3(2H)-one]"
0.001 to 10,0.001 to 10,"Cc1c(-c2cc(F)nc(O[C@@H]3CCN(c4cn[nH]c(=O)c4Cl)C3)c2)cnn1CC1(C)COC1 [P-0151, (R)-4-chloro-5-(3-((6-fluoro-4-(5-methyl-1-((3-methyloxetan-3-yl)methyl)-1H-pyrazol-4-yl)pyridin-2-yl)oxy)pyrrolidin-l-yl)pyridazin-3(2H)-one]"
